According to the NIST ThermoML archive (doi:10.1021/acs.jced.5b00849):
Values joined by “and” are separate entries in the source; they are usually repeats but may differ in a detail not shown here. Identical values can stand only once. ± gives the expanded uncertainty stated by the source.

Tests used:
[1] = refractive index (Na D-line) (dimensionless); details: 101 kPa, Liquid, Standard Abbe refractometry
[2] = Liquid, Ebulliometric method (Recirculating still)
[3] = refractive index (Na D-line) (dimensionless); xn = mol fraction of the nth substance listed; details: 101 kPa, Liquid, Standard Abbe refractometry
[4] = Boiling temperature at pressure P; details: Liquid, Ebulliometric method (Recirculating still)

CC1CCC(=O)O1 (stereo not given) [γ-valerolactone]
Details	refractive index	vapor or sublimation pressure
[1], 293.2 K	1.4339 ± 0.0004	–
[1], 298.2 K	1.4316 ± 0.0004	–
[2], 347.1 K	–	0.67 kPa
[2], 356 K	–	1.33 kPa
[2], 370.4 K	–	2.67 ± 4 kPa
[2], 384.5 K	–	5.07 ± 4 kPa
[2], 401.4 K	–	10.1 ± 4 kPa and 10.13 ± 4 kPa
[2], 416.4 K	–	17.33 ± 4 kPa
[2], 426.5 K	–	24 ± 4 kPa
[2], 435.3 K	–	31.6 ± 4 kPa
[2], 442.7 K	–	39.46 ± 4 kPa
[2], 451.5 K	–	50.6 ± 4 kPa and 50.66 ± 4 kPa
[2], 459.2 K	–	62.26 ± 4 kPa
[2], 465.3 K	–	73.06 ± 4 kPa
[2], 469 K	–	80.53 ± 4 kPa
[2], 477.8 K	–	101.19 ± 4 kPa
[2], 480.2 K	–	101.33 ± 4 kPa

CC1CCC(=O)O1 (stereo not given) [γ-valerolactone] + O
refractive index, [3]
Details	293.2 K	298.2 K
x1 = 0.0158	1.342 ± 0.0004	1.3411 ± 0.0004
x1 = 0.0318	1.3505 ± 0.0004	1.3499 ± 0.0004
x1 = 0.0532	1.3591 ± 0.0004	1.3585 ± 0.0004
x1 = 0.0789	1.3682 ± 0.0004	1.3671 ± 0.0004
x1 = 0.1066	1.3761 ± 0.0004	1.3751 ± 0.0004
x1 = 0.1405	1.3837 ± 0.0004	1.3826 ± 0.0004
x1 = 0.1855	1.3913 ± 0.0004	1.39 ± 0.0004
x1 = 0.2295	1.3987 ± 0.0004	1.397 ± 0.0004
x1 = 0.2964	1.4062 ± 0.0004	1.4046 ± 0.0004
x1 = 0.3833	1.4135 ± 0.0004	1.4119 ± 0.0004
x1 = 0.5097	1.4204 ± 0.0004	1.4186 ± 0.0004
x1 = 0.7092	1.4273 ± 0.0004	1.4259 ± 0.0004
x1 = 1	1.4339 ± 0.0004	1.4316 ± 0.0004

CO [methanol]
[4]
Details	Boiling temperature at pressure P [°C]
40 kPa	42.6 ± 2.8
46.66 kPa	46 ± 2.6
58.8 kPa	51.2 ± 2.3
67.59 kPa	54.4 ± 2.1
76.13 kPa	57.5 ± 2.1

O [water]
Details	refractive index, 293.2 K	refractive index, 298.2 K	vapor or sublimation pressure, 319.6 K [kPa]	vapor or sublimation pressure, 354.8 K [kPa]	vapor or sublimation pressure, 373.2 K [kPa]
[1]	1.3332 ± 0.0004	1.3327 ± 0.0004	–	–	–
[2]	–	–	10.1 ± 4	50.6 ± 4	101.33 ± 4

O [water] + CC1CCC(=O)O1
[3], x2 = 0
Details	refractive index
293.2 K	1.3332 ± 0.0004
298.2 K	1.3327 ± 0.0004
